Reference: US20120219550A1, “PHARMACEUTICAL COMBINATIONS COMPRISING A PYRIDO [4,3-D] PYRIMIDINE DERIVED HSP90-INHIBITOR AND A HER2 INHIBITOR” (NOVARTIS AG, priority 2008, published 2012)

Tested on: BT-474 breast cancer xenograft
Assay: Antitumor effect in BT-474 human breast carcinoma xenograft model in nude mice
Type: in vivo
Settings: BT-474 xenograft, 21 days treatment, i.v.
Method: The estrogen receptor positive cell line BT-474 (ATCC, number HTB-20) which is a human breast carcinoma cell line is used. The cells are grown in DMEM high glucose (4.5 g/l) supplemented with 10% FCS, […] L-glutamine and 1% sodium pyruvate.
In preparation for cell inoculation, each mouse is subcutaneously implanted on the upper dorsal side with a 17β-Estradiol pellet (25 microgram/day; 90 day release) using a trocar needle. BT-474 cells (5×10̂6) are injected in 200 microliter Matrigel:HBSS (1:1 vol) (BD Matrigel™ Basement Membrane Matrix). The injection site is subcutaneously in the right flank. Treatment with compound I is initiated when the average tumor volume reached approximately 100 mm^3 Tumor growth is monitored at regular intervals. The xenograft tumor sizes is measured manually with calipers and the tumor volume is estimated using the formula: […], where width (W) and length (L) are the two largest diameters. Results are presented as mean±SEM. Tumor data are analyzed by ANOVA with post hoc Dunnet's test for comparison of treatment versus control group.
As a measure of efficacy the % T/C value is calculated at the end of the experiment according to:
(Δtumor volumetreated/Δtumor volumecontrol)*100
Where Δtumor volumes represent the mean tumor volume on the evaluation day minus the mean tumor volume at the start of the experiment.
Tumor regression is presented as the relative absolute change in tumor volume from the start to the end of the experiment (−(Tumor volumeevaluation day−Tumor volumestart day)/Tumor volumestart day*100).
The antitumor effect of compound I and trastazumab is evaluated in the BT-474 xenograft model (FIG. 1). The treatment period is 21 days and each treatment group consists of 8 tumor bearing animals. The tumor sizes in the treatment groups are compared to those of the vehicle treated groups and the effect is expressed as % T/C or regression when applicable. […] Compound I is administered i.v. once per week at a dose of 15 mg/kg.

For `CCNC(=O)c1noc(-c2cc(C(C)C)c(O)cc2O)c1-c1ccc(CN2CCOCC2)cc1` [Compound I, 5-(2,4-Dihydroxy-5-isopropyl-phenyl)-4-(4-morpholin-4-ylmethyl-phenyl)-isoxazole-3-carboxylic acid ethylamide], the “antitumor effect in words (comparison with vehicle or single agents)” value was “no statistically significant difference from vehicle treated animals”, the “T/C (%)” value (Trastuzumab 5 mg/kg 2 qw, Compound I 15 mg/kg qw, end of experiment) was 96% and the “reduction of tumor burden” value (Trastuzumab 5 mg/kg twice per week, Compound I 15 mg/kg qw) was 4%. For the same compound, the “ΔTumor volume (mm^3)” value (mean ± SEM, Trastuzumab 5 mg/kg 2 qw, Compound I 15 mg/kg qw) was 929 ± 152 mm^3.
